{"source": "patent US20210323913A1", "about": "“SIGMA RECEPTOR BINDERS” (BOARD OF REGENTS, THE UNIVERSITY OF TEXAS SYSTEM, priority 2016, published 2021)", "key": {"[1]": {"target": "sigma 2 receptor (Homo sapiens, UniProt Q5BJF2)", "assay": "Sigma 2 receptor radioligand competition binding"}, "[2]": {"target": "5-HT2A (Homo sapiens, UniProt P28223)", "assay": "Radioligand competition binding, 5-HT2A", "conditions": "Table 5; Cheng-Prusoff from best fit IC50"}, "[3]": {"target": "5-HT7 (Homo sapiens, UniProt P34969)", "assay": "Radioligand competition binding, 5-HT7", "conditions": "Table 5; Cheng-Prusoff from best fit IC50"}, "[4]": {"target": "5-ht5a (Homo sapiens, UniProt P47898)", "assay": "Radioligand competition binding, 5-ht5a", "conditions": "Table 5; Cheng-Prusoff from best fit IC50"}, "[5]": {"target": "D1 (Homo sapiens, UniProt P21728)", "assay": "Radioligand competition binding, D1", "conditions": "Table 5; Cheng-Prusoff from best fit IC50; some values marked (AVE)"}, "[6]": {"target": "5-HT2B (Homo sapiens, UniProt P41595)", "assay": "Radioligand competition binding, 5-HT2B", "conditions": "Table 5; Cheng-Prusoff from best fit IC50"}, "[7]": {"target": "5-HT1D (Homo sapiens, UniProt P28221)", "assay": "Radioligand competition binding, 5-HT1D", "conditions": "Table 5; Cheng-Prusoff from best fit IC50"}, "[8]": {"target": "M4 (Homo sapiens, UniProt P08173)", "assay": "Radioligand competition binding, M4", "conditions": "Table 5; Cheng-Prusoff from best fit IC50; one value marked (AVE)"}, "[9]": {"target": "T1, 5-HT2C (Homo sapiens, UniProt P28335)", "T1 sequence (P28335 33-458)": "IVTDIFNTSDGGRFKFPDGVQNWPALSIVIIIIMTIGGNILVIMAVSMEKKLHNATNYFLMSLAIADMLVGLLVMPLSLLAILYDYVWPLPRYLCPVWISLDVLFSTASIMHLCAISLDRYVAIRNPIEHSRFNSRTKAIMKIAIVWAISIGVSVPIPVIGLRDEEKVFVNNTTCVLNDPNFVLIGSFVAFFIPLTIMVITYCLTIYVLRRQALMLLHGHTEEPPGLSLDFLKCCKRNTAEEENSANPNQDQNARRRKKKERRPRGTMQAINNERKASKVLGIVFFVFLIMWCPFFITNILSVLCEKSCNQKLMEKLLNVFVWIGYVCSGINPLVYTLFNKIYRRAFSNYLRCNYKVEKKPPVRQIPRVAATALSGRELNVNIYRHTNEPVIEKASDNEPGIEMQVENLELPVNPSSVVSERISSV", "assay": "Radioligand competition binding, 5-HT2C", "conditions": "Table 5; Cheng-Prusoff from best fit IC50"}, "[10]": {"target": "5-HT1B (Homo sapiens, UniProt P28222)", "assay": "Radioligand competition binding, 5-HT1B", "conditions": "Table 5; Cheng-Prusoff from best fit IC50"}, "[11]": {"target": "SERT (Homo sapiens, UniProt P31645)", "assay": "Radioligand competition binding, SERT", "conditions": "Table 5; Cheng-Prusoff from best fit IC50"}, "[12]": {"target": "5-HT6 (Homo sapiens, UniProt P50406)", "assay": "Radioligand competition binding, 5-HT6", "conditions": "Table 5; Cheng-Prusoff from best fit IC50"}, "[13]": {"target": "KOR (Homo sapiens, UniProt P41145)", "assay": "Radioligand competition binding, KOR", "conditions": "Table 5; Cheng-Prusoff from best fit IC50; some values marked (AVE)"}, "[14]": {"target": "T2, 5-HT1A (Homo sapiens, UniProt P08908)", "T2 sequence (P08908 1-422)": "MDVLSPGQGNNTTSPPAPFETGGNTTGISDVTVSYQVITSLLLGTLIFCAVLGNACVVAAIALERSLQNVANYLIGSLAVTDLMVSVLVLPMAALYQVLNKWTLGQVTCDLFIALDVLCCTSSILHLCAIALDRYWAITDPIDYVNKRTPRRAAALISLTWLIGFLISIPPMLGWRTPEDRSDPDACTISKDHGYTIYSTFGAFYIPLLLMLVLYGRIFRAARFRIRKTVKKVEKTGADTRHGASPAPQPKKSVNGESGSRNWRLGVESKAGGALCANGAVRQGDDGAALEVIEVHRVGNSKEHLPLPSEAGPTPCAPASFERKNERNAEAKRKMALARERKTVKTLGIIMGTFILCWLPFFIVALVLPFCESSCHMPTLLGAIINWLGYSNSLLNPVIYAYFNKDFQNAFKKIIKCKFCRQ", "assay": "Radioligand competition binding, 5-HT1A", "conditions": "Table 5; Cheng-Prusoff from best fit IC50"}, "[15]": {"target": "PBR (UniProt P16257)", "assay": "Radioligand competition binding, PBR", "conditions": "Table 5; Cheng-Prusoff from best fit IC50; one value marked (AVE)"}, "[16]": {"target": "sigma 1 receptor (Homo sapiens, UniProt Q99720)", "assay": "Sigma 1 receptor radioligand competition binding", "conditions": "Table 1, 7-piperazinyl-tetrahydronaphthalene analogs; read-out: Ki (nM) Sig1R"}, "[17]": {"target": "H2 (Homo sapiens, UniProt P25021)", "assay": "Radioligand competition binding, H2", "conditions": "Table 5; Cheng-Prusoff from best fit IC50"}, "[18]": {"target": "T3, D4 (Homo sapiens, UniProt P21917)", "T3 sequence (P21917 1-419)": "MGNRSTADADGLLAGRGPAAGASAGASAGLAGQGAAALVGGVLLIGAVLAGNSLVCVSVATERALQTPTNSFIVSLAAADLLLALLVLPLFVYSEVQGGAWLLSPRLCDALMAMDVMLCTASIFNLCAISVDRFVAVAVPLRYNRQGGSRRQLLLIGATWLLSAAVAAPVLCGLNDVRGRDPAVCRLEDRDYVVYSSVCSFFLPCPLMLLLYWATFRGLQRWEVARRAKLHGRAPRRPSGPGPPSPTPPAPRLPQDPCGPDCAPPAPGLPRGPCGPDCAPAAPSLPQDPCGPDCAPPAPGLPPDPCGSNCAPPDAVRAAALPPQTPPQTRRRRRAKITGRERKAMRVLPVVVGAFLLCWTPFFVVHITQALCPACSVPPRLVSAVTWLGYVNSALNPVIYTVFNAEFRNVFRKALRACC", "assay": "Radioligand competition binding, D4", "conditions": "Table 5; Cheng-Prusoff from best fit IC50"}, "[19]": {"target": "D3 (Homo sapiens, UniProt P35462)", "assay": "Radioligand competition binding, D3", "conditions": "Table 5; Cheng-Prusoff from best fit IC50; one value marked (AVE)"}}, "note": "Where two headings read alike, the source gives them in different places.", "data": [{"smiles": "CCN(CC)C(=O)CCN1CCN(c2ccc3c(c2)C(N(C)C(=O)OCc2ccccc2)CCC3)CC1", "note": "(stereo not drawn) [MDW-1-213, Benzyl (7-(4-(3-(diethylamino)-3-oxopropyl)piperazin-1-yl)-1,2,3,4-tetrahydronaphthalen-1-yl)(methyl)carbamate]", "values": [{"measurement": "Ki", "setting": "[1]; Table 1, 7-piperazinyl-tetrahydronaphthalene analogs, read-out: Ki (nM) Sig2R", "result": 7, "unit": "nM"}, {"measurement": "Ki ratio Sig1R/Sig2R", "setting": "[1]; Table 1, ratio of Sig1R Ki to Sig2R Ki", "result": 292}, {"measurement": "Ki", "setting": "[1]; Table 5, Cheng-Prusoff from best fit IC50, read-out: Ki Sigma 2", "result": 7.2, "unit": "nM"}, {"measurement": "Ki", "setting": "[2]", "result": 957, "unit": "nM"}, {"measurement": "Ki", "setting": "[3]", "result": 828, "unit": "nM"}, {"measurement": "Ki", "setting": "[4]", "result": 1880, "unit": "nM"}, {"measurement": "Ki", "setting": "[5]", "result": 4050, "unit": "nM"}, {"measurement": "Ki", "setting": "[6]", "result": 692, "unit": "nM"}, {"measurement": "Ki", "setting": "[7]", "result": 1360, "unit": "nM"}, {"measurement": "Ki", "setting": "[8]", "result": 3280, "unit": "nM"}, {"measurement": "Ki", "setting": "[9]", "result": 2630, "unit": "nM"}, {"measurement": "Ki", "setting": "[10]", "result": 317, "unit": "nM"}, {"measurement": "Ki", "setting": "[11]", "result": "> 10000", "unit": "nM"}, {"measurement": "Ki", "setting": "[12]", "result": 932, "unit": "nM"}, {"measurement": "Ki", "setting": "[13]", "result": 5350, "unit": "nM"}, {"measurement": "Ki", "setting": "[14]", "result": 335, "unit": "nM"}, {"measurement": "Ki", "setting": "[15]", "result": 1200, "unit": "nM"}, {"measurement": "Ki", "setting": "[16]", "result": 2100, "unit": "nM"}, {"measurement": "Ki", "setting": "[17]", "result": 333, "unit": "nM"}, {"measurement": "Ki", "setting": "[18]", "result": 319, "unit": "nM"}, {"measurement": "Ki", "setting": "[19]", "result": 852, "unit": "nM"}]}]}
